Patent US10294259B2, “Phenyl c-glucoside derivative containing deoxyglucose structure, preparation method and use thereof” (Tianjin Institute of Pharmaceutical Research, priority 2012, dated 2019)
Like-named read-outs stand apart in the source and are kept apart here.

Key:
[1] = test system: Mice;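 note: test animals were mice weighing 18-20 g, with both sexes in equal numbers in each group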
Method: Mice (18-20 g) with equal numbers of male and female are divided into groups (10 mice/group), after normal feeding for 3 days, fasted for 12 hours, and then administered intragastrically with a single dose of 750 mg/kg compound respectively.

[2] = test system: SD rats (type 2 diabetes model); assay: Urine glucose excretion in streptozotocin/high-fat high-sucrose diet type 2 diabetes model rats, glucose-oxidase method; format: in vivo, rat; conditions: for Urine glucose excretion: 6 mg/kg intragastric, glucose 2 g/kg at 0.5 h, urine collected 0-12 h; for urine glucose excretion effect (comparison in words): compared with analogues or non-deoxy compounds
Method: The health SD rats are injected intraperitoneally with multiple low doses of streptozotocin for modeling (type 2 diabetes model) after feeding with high-fat and high-sucrose diet, and the content of blood glucose is measured before and after modeling. After the modeling successful, the rats for modeling are randomly divided (8 rats/group) into one blank group (administering the same volume of 0.5% CMC sodium solution) and several groups for compounds to be tested (6 mg/kg) according to the content of 24-hour urine glucose and the body weight. Rats in each group are fasted for 16 hours before experiment. The experimental rats are administered intragastrically with glucose (2 g/kg) at 0.5 h after intragastrical administration with compounds to be tested. The urine is collected at the time-period of 0-12 h after administration, and the urine glucose values are measured at each time-period by glucose-oxidase method. […]

[3] = single dose 750 mg/kg intragastric, 10 mice/group, observed one week
[4] = both, mouse, in vivo, 750 mg/kg, 1 week

SMILES	Behaviors after administration with the compound to be tested [1, 3] [dead]	further results
CCOc1ccc(Cc2cc(C3OC(C)C(O)C(O)C3O)ccc2Cl)cc1 (stereo not drawn) [drawing 282]	1	
CCOc1ccc(Cc2cc(C3OC(C)C(O)C(O)C3O)ccc2C)cc1 (stereo not drawn) [drawing 219]		Urine glucose excretion [2]: 700 mg/200 g body weight of the rat
CCOc1ccc(Cc2cc(C3OC(CO)CC(O)C3O)ccc2Cl)cc1 (stereo not drawn) [drawing 229]		Urine glucose excretion [2]: 880 mg/200 g body weight of the rat
OCC1OC(c2ccc(F)c(Cc3cc4ccccc4s3)c2)C(O)C(O)C1O (stereo not drawn)		Behaviors after administration with the compound to be tested [1, 4]: 7 dead
CCOc1ccc(Cc2cc(C3OC(CO)C(O)CC3O)ccc2Cl)cc1 (stereo not drawn)	3	
Cc1ccc(C2OC(C)C(O)CC2O)cc1Cc1ccc(-c2ccc(F)cc2)s1 (stereo not drawn)	0	
Cc1ccc(C2OC(C)C(O)C(O)C2O)cc1Cc1ccc(-c2ccc(F)cc2)s1 (stereo not drawn)	4	
CCOc1ccc(Cc2cc([C@]34OC[C@](CO)(O3)[C@@H](O)C[C@H]4O)ccc2Cl)cc1	3	
COc1ccc(Oc2cc(C3OC(C)C(O)C(O)C3O)ccc2Cl)cc1 (stereo not drawn)		Urine glucose excretion [2]: 457 mg/200 g body weight of the rat
CCOc1ccc(Cc2cc([C@@H]3C[C@@H](O)[C@H](O)[C@@H](CO)O3)ccc2Cl)cc1 [I-D1-2, (1S)-1-[4-chloro-3-(4-ethoxybenzyl)phenyl]-1,2-dideoxy-D-glucose]		urine glucose excretion effect (comparison in words) [2]: stronger urine glucose excretion effect
COc1ccc(Cc2cc(C3OC(CO)CC(O)C3O)ccc2Cl)cc1 (stereo not drawn)		Urine glucose excretion [2]: 310 mg/200 g body weight of the rat
CCOc1ccc(Cc2cc(C3SC(CO)C(O)CC3O)c(OC)cc2C)cc1 (stereo not drawn) [drawing 304]	3	
CCOc1ccc(Cc2cc(C3SC(CO)CC(O)C3O)c(OC)cc2C)cc1 (stereo not drawn)	1	
C=C1OC(c2ccc(Cl)c(Cc3ccc(OC)cc3)c2)C(O)C(O)C1O (stereo not drawn)		Urine glucose excretion [2]: 410 mg/200 g body weight of the rat
OCC1OC(c2ccc(Cl)c(Cc3ccc(O[C@H]4CCOC4)cc3)c2)CC(O)C1O (stereo partly drawn)	2	
OCC1OC(c2ccc(Cl)c(Cc3ccc(O[C@H]4CCOC4)cc3)c2)C(O)CC1O (stereo partly drawn)	0	
CCc1ccc(Cc2c(Cl)ccc3c2COC32CC(O)C(O)C(CO)O2)cc1 (stereo not drawn)	2	
CCOc1ccc(Cc2cc(C3SC(CO)C(O)CC3O)c(OC)cc2C)cc1 (stereo not drawn) [drawing 303]	0	
CCOc1ccc(Cc2cc([C@]34C[C@@H](O)[C@H](O)[C@](CO)(CO3)O4)ccc2Cl)cc1	2	
OCC1CC(O)C(O)C(c2ccc(Cl)c(Cc3ccc(O[C@H]4CCOC4)cc3)c2)O1 (stereo partly drawn)	2	
CCc1ccc(Cc2c(Cl)ccc3c2COC32OC(CO)C(O)CC2O)cc1 (stereo not drawn)	5	
CCc1ccc(Cc2c(Cl)ccc3c2COC32OC(CO)CC(O)C2O)cc1 (stereo not drawn)	5	
CCOc1ccc(Cc2cc([C@]34OC[C@](C)(O3)[C@@H](O)[C@H](O)[C@H]4O)ccc2Cl)cc1	3	
CCOc1ccc(Cc2cc([C@@]34OC[C@@](CO)(C[C@H](O)[C@H]3O)O4)ccc2Cl)cc1	4	
CCOc1ccc(Cc2cc(C3OC(C)CC(O)C3O)ccc2Cl)cc1 (stereo not drawn)	1	
CCOc1ccc(Cc2cc(C3CCC(O)C(CO)S3)c(OC)cc2C)cc1 (stereo not drawn) [drawing 266]		Urine glucose excretion [2]: 730 mg/200 g body weight of the rat
CC1OC(c2ccc(F)c(Cc3cc4ccccc4s3)c2)C(O)C(O)C1O (stereo not drawn)	2	

SMILES	Behaviors after administration with the compound to be tested [1, 3] [dead]	further results
CCOc1ccc(Cc2cc([C@@H]3O[C@H](CO)C[C@H](O)[C@H]3O)ccc2Cl)cc1 [I-D1-4, (1S)-1-[4-chloro-3-(4-ethoxybenzyl)phenyl]-1,4-dideoxy-D-glucose]		urine glucose excretion effect (comparison in words) [2]: stronger urine glucose excretion effect
OCC1CC(O)C(O)C(c2ccc(F)c(Cc3cc4ccccc4s3)c2)O1 (stereo not drawn)	1	
OCC1OC(c2ccc(Cl)c(Cc3ccc(O[C@H]4CCOC4)cc3)c2)C(O)C(O)C1O (stereo partly drawn)	7	
Cc1ccc(C2OC(CO)C(O)CC2O)cc1Cc1ccc(-c2ccc(F)cc2)s1 (stereo not drawn)	3	
CCOc1ccc(Cc2cc(C3CC(O)C(O)C(CO)S3)c(OC)cc2C)cc1 (stereo not drawn)	3	
CC1OC(c2ccc(Cl)c(Cc3ccc(O[C@H]4CCOC4)cc3)c2)C(O)C(O)C1O (stereo partly drawn)	1	
CCc1ccc(Cc2cc(C3OC(CO)C(O)CC3O)ccc2C)cc1 (stereo not drawn)		Urine glucose excretion [2]: 230 mg/200 g body weight of the rat
CCc1ccc(Cc2c(Cl)ccc3c2COC32OC(CO)C(O)C(O)C2O)cc1 (stereo not drawn) [drawing 258]		Urine glucose excretion [2]: 755 mg/200 g body weight of the rat
CCOc1ccc(Cc2cc(C3OC(CO)C(O)C(O)C3O)ccc2Cl)cc1 (stereo not drawn)	8	
OCC1OC(c2ccc(F)c(Cc3cc4ccccc4s3)c2)CC(O)C1O (stereo not drawn)	3	
CCOc1ccc(Cc2cc([C@]34OC[C@](CO)(O3)[C@@H](O)[C@H](O)[C@H]4O)ccc2Cl)cc1	9	
OCC1OC(c2ccc(F)c(Cc3cc4ccccc4s3)c2)C(O)CC1O (stereo not drawn)	0	
CCc1ccc(Cc2c(Cl)ccc3c2COC32OC(C)C(O)C(O)C2O)cc1 (stereo not drawn)	3	
OCC1CCC(O)C(c2ccc(Cl)c(Cc3ccc(O[C@H]4CCOC4)cc3)c2)O1 (stereo partly drawn)	2	
CCOc1ccc(Cc2cc(C3CCC(O)C(CO)S3)c(OC)cc2C)cc1 (stereo not drawn) [drawing 310]	0	
CCOc1ccc(Cc2cc(C3SC(C)C(O)C(O)C3O)c(OC)cc2C)cc1 (stereo not drawn)	4	
Cc1ccc(C2OC(CO)CC(O)C2O)cc1Cc1ccc(-c2ccc(F)cc2)s1 (stereo not drawn)	3	
CCCOc1ccc(Cc2cc(C3OC(C)C(O)C(O)C3O)ccc2Cl)cc1 (stereo not drawn)	6	
Cc1ccc(C2OC(CO)C(O)C(O)C2O)cc1Cc1ccc(-c2ccc(F)cc2)s1 (stereo not drawn)	9	
CCOc1ccc(Cc2cc(C3CC(O)C(O)C(CO)O3)ccc2Cl)cc1 (stereo not drawn)	2	
COc1ccc(Cc2cc(C3OC(C)C(O)C(O)C3O)ccc2Cl)cc1 (stereo not drawn) [drawing 281]	7	
CC1OC(c2ccc(F)c(Cc3cc4ccccc4s3)c2)CC(O)C1O (stereo not drawn)	1	
Cc1ccc(C2CC(O)C(O)C(CO)O2)cc1Cc1ccc(-c2ccc(F)cc2)s1 (stereo not drawn)	5	
CCc1ccc(Cc2c(Cl)ccc3c2COC32OC(CO)C(O)C(O)C2O)cc1 (stereo not drawn) [drawing 269]	7	
CCOc1ccc(Cc2cc(C3SC(CO)C(O)C(O)C3O)c(OC)cc2C)cc1 (stereo not drawn)		Behaviors after administration with the compound to be tested [1, 4]: 10 dead
CCOc1ccc(Cc2cc(C3OC(CO)CC(O)C3O)ccc2Cl)cc1 (stereo not drawn) [drawing 272]	2	
CCc1ccc(Cc2c(Cl)ccc3c2COC32CC(O)CC(CO)O2)cc1 (stereo not drawn)	1	
